These results are taken from a melting point compilation (Tetko et al.; mined from patent text by program, amines drawn as free bases though some values may be those of a salt).

Usually melting point stands for the temperature of the solid-liquid transition.

Each structure is given as a SMILES string.

Consider `O=C1CCC(N2Cc3c(CNC(=O)Nc4ccc(Cl)cc4)cccc3C2=O)C(=O)N1` (centres undefined), for which the melting point is more than 260 °C. For `COC(=O)c1ccccc1COc1ccc(CCCO)cc1`, the melting point lay in the range of 50.5 to 52 °C. In turn, `COc1ccccc1Nc1nc(-c2ccccc2)c(C(=O)c2sc(Nc3ccccc3OC)nc2-c2ccccc2)s1` had a melting point of more than 285 °C.

`CCCCCOC(=O)CCNCC(O)COc1ccccc1C#N` (centres undefined) gave a melting point of 91 °C. As to `COc1cc(Cl)c(N)cc1C(=O)N[C@H]1CCNC[C@H]1OC` (relative stereo), the melting point amounted to 192 °C. The same measure for `O=C(O)C(CCCN1C(=O)c2ccccc2C1=O)NS(=O)(=O)c1ccc(-c2ccc(Cl)cc2)cc1` (centres undefined): 179 to 181 °C. The same measure for `CCOc1nsc(NC(=O)N(C)C)c1C(N)=O`: 172 °C; for `C#CC1(Oc2ccc(F)cc2[N+](=O)[O-])CCN(C(=O)Oc2ccccc2)CC1`: 82 to 83 °C; for `COc1cc2c(cc1OC)[C@H]1CCCC[C@H]1N=C2c1ccc(C(C)=NNC(=O)c2cccnc2)cc1`: 162 °C. With `CC(C)(C)C(=NO)Nc1ccc(Cl)nn1`, the melting point lay within 128 to 130 °C. For `CCC(=O)c1cc(C#N)c(=O)[nH]c1C=CN(C)C`, the melting point is 278 to 280 °C. Molecule `CC1(CC(=O)O)OCCc2nc(-c3ccc(Cl)cc3)sc21` (centres undefined) gave a melting point of 162 to 164 °C.

As for `COC(=O)c1ccc2c(=O)[nH]c(=O)n(CCCCBr)c2c1`, the melting point was in the range of 184 to 185 °C. `CN1CCN(c2ccccc2-c2ccc(C#N)c(=O)[nH]2)CC1` registered a melting point of 202 to 203 °C. As to `O=C(NC(Cc1ccccc1)C(=O)O)OCc1ccc(CCOc2ccccc2)cc1` (centres undefined), the melting point lay within 150 to 152 °C. In turn, `COC(=O)c1ccc(CN(C(C)C)S(=O)(=O)c2ccc(Cl)cc2)cc1` yielded a melting point of 110 to 112 °C. The same measure for `Nc1nc(N)nc(-c2ccc(NS(=O)(=O)c3ccc4ccccc4c3)cc2)n1`: 230 to 233 °C; for `Cc1c(Cc2cccc(C(F)(F)F)c2)oc2c(-c3cc(C(=O)NCCO)ccn3)cccc12`: 205 to 206 °C; for `COC(=O)CCC1OC(=O)N=C1c1ccccc1` (centres undefined): 104 to 105 °C. The molecule `CCOC(=O)C1Cc2cc(-c3ccccc3)ccc2O1` (centres undefined) displayed a melting point of 112 °C. `O=C(Cc1ccccn1)N1CCC(C2c3ccc(Cl)cc3CCc3cccnc32)CC1` (centres undefined) yielded a melting point of 81.7 to 82 °C. Turning to `CC(C)c1cccc2c1C(=O)NS2(=O)=O`, the melting point came to 177 °C. On to `CCOC(=O)c1cn(-c2cccc(Oc3ccc(Br)cn3)c2)cn1`, for which the melting point lay within 103 to 105 °C. Take `Cc1ccc(S(=O)(=O)OCC2Cc3cccc(Br)c3O2)cc1` (centres undefined): the melting point lay in the range of 120 to 122 °C. The same measure for `Cc1c(C)c2c(c(C)c1N)CC(C)(CN1CCc3c([nH]c4ccccc34)C1)O2` (centres undefined): 150 to 153 °C; for `CCCCOc1cc(CCS(=O)(=O)NC(=O)OCCOC)n(Cc2ccc(Cl)cc2Cl)n1`: 82 to 86 °C; for `CN(C)C(=O)C(C)(C)c1cn2nc(Cl)ccc2n1`: 149 to 151 °C.

Turning to `COC(=O)c1ccc(=O)n(CCCNC(=O)c2ccccn2)c1`, the melting point fell in the range of 115 to 116 °C.

Consider `COc1cc(Sc2ccccc2CO)ccc1Cl`, for which the melting point is 78 to 80 °C. For the molecule `CN1OC(c2ccc(Cl)cc2)CC1(Cn1ccnc1)c1ccco1` (centres undefined), the melting point lay in the range of 99 to 101 °C. Regarding `Nc1cc(/C=C/c2nc3ccccc3s2)ccc1O`, the melting point is 192 to 193 °C. The same measure for `CC(=O)N1CCC(Oc2ccc([N+](=O)[O-])cc2)(c2ccccc2)CC1`: 145 to 150 °C; for `CS(=O)(=O)c1ccc(C(O)c2cccc3ccccc23)cc1` (centres undefined): 160 °C.

In turn, `NCCCCn1cnc(-c2ccccc2)c1` registered a melting point of 130 to 132 °C. Turning to `Cc1c(-c2ccc(O)cc2)n(Cc2ccc(OCCN3CCCCC3)cc2)c2ccc(O)cc12`, the melting point fell in the range of 214 to 217 °C.

As to `CCN1c2nc(Cl)ccc2NC(=O)c2cc(CCc3ccncc3)cnc21`, the melting point was in the range of 194 to 196 °C. Regarding `COc1nc(F)cc2nc(SCc3ccccc3)nn12`, the melting point fell in the range of 121 to 122 °C.

Molecule `Cc1ccccc1C(=O)c1ccc(Nc2ccc(Br)cc2NC(=O)OCCl)cc1Cl` had a melting point of 189 to 190 °C. `N#CCOC(=O)C=Cc1cc2ccccc2o1` registered a melting point of 119 to 121 °C.

In turn, `O=C(O)CCC(O)c1ccc(-c2ccccc2F)cc1` (centres undefined) gave a melting point of 174 to 175 °C. Molecule `CCCCc1c(OS(=O)(=O)c2ccc(C)cc2)n(-c2ccccc2)n(-c2ccccc2)c1=O` came in with a melting point of 112 to 121 °C. Take `O=C(Nc1ccccc1C(F)(F)F)C1CCCCC1`: the melting point was 153 to 154 °C. `O=C(N1Cc2cncnc2-c2ccc(Cl)cc2C1c1ccccc1Cl)C(F)(F)F` (centres undefined) registered a melting point of 178 to 179 °C. `Cc1cc(NC(=O)C(=O)N(C(C)C)C(C)C)cc(C)c1S(=O)(=O)C[N+](=O)[O-]`: the melting point lay within 97 to 98 °C.

As for `CS(=O)(=O)c1ccc(-c2cnn(-c3cccc(C(F)(F)F)c3)c(=O)c2-c2ccc(Cl)cc2)cc1`, the melting point fell in the range of 103 to 105 °C. Turning to `Cc1sc2c(c1Br)C(=O)N(CCCCCl)CCC2`, the melting point was 78 to 80 °C. Take `NCC1Cc2cc(C(F)(F)F)cc(-c3ccc(C(F)(F)F)cc3)c2O1` (centres undefined): the melting point was more than 250 °C. For the molecule `COC(=O)C=Cc1cc(-n2nc(C)n(C(F)F)c2=O)c(Cl)cc1Cl`, the melting point fell in the range of 148 to 151 °C. `COC(=O)c1ccc2c(C(=O)c3ccccc3)c(C(=O)OC)ccc2c1`: the melting point stood at 84 °C. `CCOC(=O)c1c(OC)cc(C(F)(F)F)nc1C(F)(F)F` yielded a melting point of 58.5 to 59.5 °C. Turning to `O=C(CCCCCBr)Nc1ccc(O)cc1`, the melting point was 124 to 125 °C.

The molecule `COC(=O)c1cnc(C(=O)OC)c(Cl)c1` registered a melting point of 36 to 38 °C. Turning to `CC(C)c1cc2cc(O)ccc2c(Oc2ccc(/C=C/C(=O)O)cc2)c1-c1ccccc1`, the melting point lay in the range of 198 to 199 °C. Regarding `O=C(O)Cc1cccc2c1ccn2Cc1ccccc1`, the melting point lay in the range of 138 to 140 °C. On to `O=C(O)c1cc(NCc2ccc([N+](=O)[O-])cc2)ccc1O`, for which the melting point fell in the range of 211 to 212 °C. The same measure for `CC(C)(C)C(=O)Nc1ccc2oc3c(c2c1)CCCC3`: 210 to 211 °C.

With `CC(C)(C)n1ncc(C(=O)c2ccc(S(C)(=O)=O)c(-c3ccccc3)c2Cl)c1O`, the melting point is 262 to 264 °C.

`CCCNC(=O)C(C#N)=C(SC)SC` gave a melting point of 65 to 66 °C. In the case of `OCCCOc1ccc(Cl)cc1Cl`, the melting point lay in the range of 53 to 55 °C. `CCCCCCCCCCCCn1nnc(CCC(=O)Nc2c(C(C)C)cccc2C(C)C)n1` yielded a melting point of 41 to 43 °C. The same measure for `O=C(Nc1ccc(-n2nc(C(F)(F)F)cc2Br)cc1)c1cccc(F)c1F`: 109 to 112 °C; for `CCOCc1nc2cnc3cc(Br)ccc3c2n1CC1CCN(C(=O)OC(C)(C)C)CC1`: 169 to 170 °C. For the molecule `CS(=O)c1ccc(-n2cnc3ccc(-c4nnc(C5CC5)o4)cc32)cc1` (centres undefined), the melting point was in the range of 243 to 245 °C. The molecule `O=Cc1cc(Cc2ccccc2)ccc1O` registered a melting point of 78 to 79 °C. The same measure for `C1=Cc2cc3ccccc3cc2C1`: 160 to 163 °C.

As for `CCc1c(NC(=O)OC(C)(C)C)cccc1NC(=O)c1ccc(Br)cc1`, the melting point lay within 181 to 183 °C.

With `COc1cc(C=CC(=O)c2ccccc2[N+](=O)[O-])cc(OC)c1`, the melting point lay in the range of 98.4 to 98.9 °C. For the molecule `CC(C)c1ccc(OC(Cc2ccc(OCCNC(=O)c3ccc(-c4ccccc4)cc3)cc2)C(=O)O)cc1` (centres undefined), the melting point is 172 to 173 °C. On to `COC(=O)C=CCCC(C)C1CCC2C3CCC4CC(OC=O)CCC4(C)C3CC(OC=O)C12C` (centres undefined), for which the melting point was 112 to 115 °C. The molecule `CC1CC(=O)NN=C1c1ccc(N2CCC(CN)CC2)c([N+](=O)[O-])c1` (centres undefined) had a melting point of 131 to 132 °C.

On to `Clc1ccc(-c2nsc3cc(OCCCCBr)ccc23)cc1`, for which the melting point is 68 to 69 °C. Turning to `CCN(c1ccc(F)cc1[N+](=O)[O-])S(=O)(=O)c1ccc(C)cc1`, the melting point was in the range of 93 to 94.5 °C. In turn, `Cc1c(C(=O)O)cnn1CC(F)(F)F` returned a melting point of 188 to 190 °C. For `Cc1ccc(-c2ccc(=S)[nH]n2)c(OCC(O)CNC(C)(C)C)c1` (centres undefined), the melting point was in the range of 135 to 140 °C. In turn, `CSc1nc(-c2ccc(F)cc2)c(-c2ccnc(Nc3ccccc3)c2)[nH]1` returned a melting point of 228 °C.

`Fc1cc(Cl)ccc1-n1nc2c(c1Cl)CCC2`: the melting point was in the range of 102 to 104 °C. Regarding `COc1ccc(CN(C)CCNc2ccc(NC(=O)c3cccc4c(=O)c5cccc(OC)c5[nH]c34)cc2)cc1OC`, the melting point came out at 196 °C. In turn, `COc1ccc(C=CC2=NN(c3ccc([N+](=O)[O-])cc3)C(c3ccc(OC)c(O)c3)C2)cc1O` (centres undefined) yielded a melting point of 215 to 217 °C. `Cc1cc(C)c2ncc(NC(=O)c3cc(C(C)C)c(O)c(C(C)C)c3)c(-c3ccccc3Cl)c2c1` gave a melting point of 237 to 238 °C. The same measure for `CCc1n[nH]c(=O)n1C`: 86 °C; for `N#Cc1ccc2cc(CCCCc3cc4ccc(C#N)cc4o3)oc2c1`: 215 to 217 °C; for `COc1nccc2oc(S(N)(=O)=O)cc12`: 180 to 182 °C. The same measure for `COc1ccccc1/C(=C/C=C/C(=O)NCCCCc1cccnc1)c1ccccc1`: 66 to 68 °C; for `O=C(NCCc1c[nH]c2ccc(C(=O)Nc3ccccc3)cc12)OCc1ccccc1`: 136 to 138 °C; for `Cn1ncc2c3[nH]n(-c4ccc(S(N)(=O)=O)cc4)c(=O)c3c(-c3cccc(C(F)(F)F)c3)nc21`: 272 to 274 °C. `CCCCCCCCOc1ccc(-c2ccc(C(C)OC(=O)CCC)cc2)cc1` (single isomer, unassigned; (+)) showed a melting point of 56.9 °C. `S=C(Cc1ccccc1)c1ccccc1` came in with a melting point of 52 to 53 °C.

For `O=C1CCCN1N=c1sc2ccccc2s1`, the melting point lay in the range of 122 to 124 °C. In the case of `NS(=O)(=O)c1ccc(-c2cc(C(=O)CCCO)nn2C2CCCCC2)cc1`, the melting point was in the range of 152 to 154 °C.
